Results reported in a melting point compilation (Tetko et al.; mined from patent text by program, amines drawn as free bases though some values may be those of a salt).

| melting point [°C] | SMILES |
| --- | --- |
| 168 to 170 | Cc1ccc2c(c1)C(C(=O)O)c1cc(Br)ccc1CO2 (stereo not drawn) |
| 141 to 143 | COc1ccc(S(=O)(=O)N2c3cc(F)ccc3-c3ccc(F)cc3C2C)cc1 (stereo not drawn) |
| 138 to 139 | NC(=O)c1ccccc1NCc1ccc(Cl)cc1 |
| 160 to 162 | CSc1nccc(-c2c3cccnc3n3c(NC(C)=O)nccc23)n1 |
| 60.5 to 61.6 | CCCCCCn1c(-c2ccc3c(c2)OCO3)nc2ccccc21 |
| 208 | O=Cc1ccc(C=CC(=O)N2CCc3c([nH]c4ccccc34)C2c2ccc3c(c2)OCO3)cc1 (stereo not drawn) |
| 167 to 180 | COc1cc(C2Oc3cc(C4Oc5cc(O)cc(O)c5C(=O)C4O)ccc3OC2CO)ccc1O (stereo not drawn) |
| 155 to 157 | CCCCc1nn(-c2cc(N)ccc2Cl)c(=O)n1Cc1ccc(-c2ccccc2S(=O)(=O)NC(=O)c2ccccc2Cl)cc1 |
| 168 to 172 | CS(=O)(=O)c1ccc(C[C@@H](NC(=O)OCc2ccccc2)[C@H](O)C(=O)O)cc1 |
| 152 | Cc1cc([N+](=O)[O-])ccc1N=C1SC(=O)CN1CC(C)C |
| 213 to 215 | Fc1cc(CC2(Cc3ccnc(F)c3)c3ccccc3-c3nc(-c4ccccc4)ncc32)ccn1 |
| 185 to 189 | NS(=O)(=O)c1ccc(-c2cnn(Cc3ccccc3)c(=O)c2-c2ccc(F)cc2)cc1 |
| 124 to 125 | Cc1nsc2ccc([N+](=O)[O-])cc12 |
| 100 to 109 | O=C1c2c(O)cccc2OC12CC2 |
| 187 to 189 | CCOc1cc2c(c3c1OC(C)(C)C3)C(c1ccccc1)=NC(C)(CN1C(=O)c3ccccc3C1=O)C2 (stereo not drawn) |
| 167 to 169 | COc1cc(OC)nc(C(=O)NS(=O)(=O)NC(C)C)n1 |
| 90 to 92 | COC(C)(C)O[C@@H]1C(=O)N(C(=O)OC(C)(C)C)[C@@H]1c1ccccc1 (relative stereo) |
| 96 | Oc1ccc(CN2CCCCC2)c2cccnc12 |
| 192 to 194 | COc1ccc(-c2ccc(C(=O)Nc3ccc4nc(CN5CCCCC5)ccc4c3)cc2)cc1 |
| 177 to 179 | CCCCC(=O)Nc1ccc(Cl)c(-n2nc(CCCC)n(Cc3ccc(-c4ccccc4S(=O)(=O)NC(=O)OC(C)(C)C)cc3)c2=O)c1 |
| 92 to 93 | CCN(CC)C(=O)c1ccoc1-c1ccc2ccccc2c1 |
| 219 to 221 | COc1ccc(Nc2cc([N+](=O)[O-])ccc2C)c(C(=O)O)c1 |
| 223 to 225 | O=C(Nc1ccc(-n2nc(C(F)(F)F)cc2C2CC2)nc1)c1c(Cl)cncc1Cl |
| 63 to 65 | N#Cc1ccc(CC=O)cc1 |
| 202 to 206 | Nc1cc(=O)nc(Nc2ccccc2)n1-c1ccccc1 |
| 162 to 165 | O=C(NCc1ccc(Cl)cc1)c1ccc2cccnc2c1O |
| 110 to 115 | COc1ccc(C(=NO)c2sccc2Br)cc1 |
| 117 to 120 | Cc1nc(N2CCN(c3ccc(F)cc3)CC2)c(C#N)nc1-c1ccccc1 |

| melting point [°C] | SMILES |
| --- | --- |
| 151 to 152 | Cc1onc(-c2c(Cl)cccc2Cl)c1CSc1ccc(OCC(=O)O)c2c1CCC2 |
| 145 to 146 | CCOC(=O)Cc1ccc(NC2=NN(c3ccc(C)cc3)CC2)cc1 |
| 89 to 90 | CN1CCN(c2nc3ccccc3nc2Cc2ccccc2)CC1 |
| 97 to 99 | CCOc1ccc(CC(CO)NC(=O)c2ccnc(Br)c2)cc1OCC (stereo not drawn) |
| 134 to 136 | CC(CCCC(C)C1C(O)CC2C3CC=C4CC(O)CCC4(C)C3CCC21C)CN1C(=O)c2ccccc2C1=O (stereo not drawn) |
| 62 to 70 | Cc1cc(SC2=C(O)CC(CCc3ccoc3)(C(C)C)OC2=O)c(C(C)(C)C)cc1CO (stereo not drawn) |
| 80 to 82 | CC(=O)c1ccc(NS(=O)(=O)N(C)C)c(Oc2ccc(F)cc2F)c1 |
| 84 to 85 | CC(C)OCCNC(=O)c1cccc(-c2cccc3cc(Cc4cc(F)cc(Cl)c4)sc23)c1 |
| 210 to 212 | CCCSc1ncc(CC(NC(=O)c2ccccc2)C(=O)O)n1Cc1ccccc1Cl (stereo not drawn) |
| 111 to 113 | CN(C=O)CCC12CCCn3c1c(c1ccccc13)CCO2 (stereo not drawn) |
| 65 to 66 | CCOC(=O)CCCCC(=O)c1ccc2cc(OCCC(C)C)ccc2c1 |
| 56 to 59 | CCCCCCCCCCCCCCCCCC(=O)N1CC2(CCCCC2)NC2(CCCCC2)C1 |
| 220 to 221 | CC(C)(C)c1cc(C(=O)Nc2ccc(N)cc2)cc(C(C)(C)C)c1O |
| 186 to 188 | O=C(Nc1cccc(-c2nnn[nH]2)c1)Oc1ccc([N+](=O)[O-])cc1 |
| 254 to 256 | O=C(CCCNc1c(C(=O)O)[nH]c2cc(Cl)cc(Cl)c12)c1ccccc1 |
| 133 to 134 | CCCCCN(CCCCC)C(=O)N1CCN(C(=O)N(c2ccccc2)c2ccccc2)[C@H](CO)C1 |
| 220 | COc1ccc(-c2cc[nH]c(=O)n2)cc1OC1CC2CCC1C2 (stereo not drawn) |
| 81 to 89 | NCC#Cc1ccc(Cl)cc1C(=O)c1ccccc1Cl |
| 102 to 103 | O=[N+]([O-])c1ccc2c(cnn2Cc2ccccc2[N+](=O)[O-])c1 |
| 181 to 182 | COC(=O)c1sc(C)c2nc(OC)n(Cc3ccc(-c4ccccc4C#N)cc3)c12 |
| 178 to 180 | O=C(NC(=O)c1c(F)cccc1F)Nc1cc(Cl)c(OC(F)(F)C(F)Cl)c(Cl)c1 (stereo not drawn) |
| 211 to 213 | Cn1c(=N)c(C(=O)NCCN2CCOCC2)c(O)c2cc(Cl)ccc21 |
| 40 to 80 | CCCCC(NC(=O)c1ccccc1)C(=O)CN(C)C(=O)N1CCCC1C(=O)O (stereo not drawn) |
| 166 to 168 | COc1cc(C=CC(=O)c2ccccc2)cc(C(F)(F)F)c1O |
| 64 to 65 | Cc1ccc(C(O[Si](C)(C)C(C)(C)C)C(=O)N2CCOCC2)cc1 (stereo not drawn) |
| 334 | CCCn1c(=O)[nH]c2ccc(C(=O)c3nc(NS(C)(=O)=O)c4ccccn34)cc2c1=O |
| 78 to 80 | COC(=O)C(Cl)=Cc1ccc(Cl)cc1 |

The next lines start with the compound.

| SMILES | melting point [°C] |
| --- | --- |
| OC(c1ccccc1)C(NCc1ccco1)c1ccccc1 (stereo not drawn) | 141 to 144 |
| COc1cccc(-n2c(=O)n(O)c(=O)c3cc(F)c(N4CCCC4)cc32)c1 | 216 to 218 |
| N#Cc1ccc(NC(=S)N2CCN(c3cnccn3)CC2)cc1 | 208 to 210 |
| CCCCOCCCNC(=O)c1cnc(C(=O)NCC(=O)OCc2ccccc2)c(OC)c1 | 97 to 99 |
| C=CCC(O)(CC=C)c1nc(-c2ccncc2)c(-c2ccc(Cl)cc2)n1CC | 159 to 160 |
| CC[C@@]1(O)C(=O)OCc2c1cc1n(c2=O)Cc2c-1nc1ccc(Cl)c3c1c2C(NC(C)=O)CN3 (stereo partly drawn) | 250 to 270 |
| OCC1OC(n2c(I)nc3cc(Cl)c(Cl)cc32)C(O)C1O (stereo not drawn) | 180 to 182 |
| CCCCCCCCc1cc2cc(O)ccc2c(Oc2ccc(/C=C/C(=O)O)cc2)c1-c1ccccc1 | 163 to 164 |
| Cc1cc(S(=O)(=O)N2c3ccccc3-c3ccccc3C2C)ccc1O (stereo not drawn) | 186 to 188 |
| CCC(N(C)C)n1cc(C(=O)CN2CCCCC2)cc1C(=O)c1ccc(Cl)cc1 (stereo not drawn) | 138 to 141 |
| Cc1cc(C(F)(F)F)cc(=O)n1C | 80 to 82 |
| Cn1c(C2CC2)nc2c1CCCC2=O | 108 |
| CCc1nc(-c2ccccc2)[nH]c(=O)c1C | 195 to 199 |
| N#CC(C#N)C(c1cccc2ccccc12)c1cccc2ccccc12 | 179 to 181 |
| CCn1cc(-c2ccccc2)nc(S(=O)(=O)Cc2ccc(Cl)cc2)c1=O | 146 to 148 |
| Cc1cc(C)c(/C=C2\C(=O)N(CN3CCN(C)CC3)c3ccccc32)[nH]1 | 160 to 164 |
| CC(C(=O)c1c(O)c2cccnc2n(-c2ccccc2)c1=O)c1ccccc1 (stereo not drawn) | 140 to 151 |
| CCCCCC=C1SC(=S)N(CC(=O)O)C1=O | 136 to 140 |
| O=C1C=C(N2CCCCC2)c2oc3ccccc3c2C1=O | 151 to 156 |
| NC(=O)c1sc2nccc(N3CCCN(c4ccc(C(F)(F)F)cc4)CC3)c2c1N | 204 to 208 |
| O=C1OC(c2ccccc2)(c2ccccc2)C2CN(c3nc4ccccc4o3)CCN12 (stereo not drawn) | 260 |
| FC(F)(F)c1ccc(CN2CC3(COc4ccc(-c5cccnc5)cc43)c3ccccc32)o1 (stereo not drawn) | 98 to 100 |

| SMILES | melting point [°C] |
| --- | --- |
| CC(C)n1cc(C#N)c(-c2ccc([N+](=O)[O-])o2)n1 | 181 to 182 |
| Cc1ccccc1C=CCC(C(=O)C=Cc1ccc(Cl)cc1)c1ccccc1 (stereo not drawn) | 60 to 76 |
| Nc1sc(/C=C/CC2CCCCC2)c(CN(C2CCCCC2)C2CCCCC2)c1C(=O)c1ccc(Cl)cc1 | 147 to 150 |
| CCOC(=O)Cc1ccc(-c2nc(COc3ccc(CCl)cc3OC)c(C)o2)cc1 | 121 to 122 |
| CC1(C)OC(c2ccc(S(C)(=O)=O)cc2)=C(c2ccc(S(C)(=O)=O)cc2)C1=O | 245 to 257 |
| CC(C)(C)OC(=O)[C@@H]1CCCN1C(=O)C=CC(F)(F)F | 119 to 120 |
| NC(=O)c1ccc(OCC(F)(F)F)cc1 | 177 to 178 |
| COC(=O)c1ccc(-c2cccc(CO)c2)cc1 | 88 to 89 |
| N#Cc1cc(-c2cnccn2)c[nH]c1=O | 250 |
| CCOC(=O)c1[nH]c2ccc(Cl)cc2c1-c1ccccc1F | 191 to 193 |
| CN(C)C(=O)n1nc(NC=O)c2cc(C(F)(F)F)ccc21 | 198 to 200 |
| COC1OCC[C@@H]1NC(=O)[C@H](CC1CCCCC1)NC(=O)CNC(=O)COc1ccc2c(c1)Nc1ccccc1S2 (stereo partly drawn) | 179 to 180 |
| CN(c1cc(OCCCS(C)(=O)=O)cc2cc(C3=NCC(CN4CCS(=O)CC4)S3)[nH]c12)S(=O)(=O)c1ccccn1 (stereo not drawn) | 107 to 110 |
| NC(CCOc1ccc(C(=NO)C(=O)NC2CN(C(C(=O)O)c3ccc(OCc4ccccc4)cc3)C2=O)cc1)C(=O)O (stereo not drawn) | 164 to 168 |
| CC(=O)Nn1cc(C)n(C)c1=O | 199 to 201 |
| CN1NC(=O)CC1c1ccccc1 (stereo not drawn) | 160 to 161 |
| CCCC(C(=O)N(CC)CC)n1cc(C)c(-c2ccccc2)n1 (stereo not drawn) | 65 to 67 |
| COc1ccc2c(cc(CCC(=O)O)n2S(=O)(=O)c2ccccc2)n1 | 136 to 139 |
| CCCn1nnn(-c2cc(OCC#CI)c(Cl)cc2Cl)c1=O | 134 to 138 |
| Cc1cc(C)c(C(CO)c2ccccc2)c(O)c1C (stereo not drawn) | 103 to 104 |
| CC1(C)CC(=C(c2ccc(O)cc2)c2ccc(-c3ccccc3CO)cc2)CC(C)(C)C1 | 171 to 172 |
